According to patent publication US11731946B2, “Broad spectrum antivirulence, anti-persistence compounds” (priority 2017, dated 2023):
Where “and” joins values, the source holds several entries; their conditions need not be identical. Equal values may be shown once. Entries after “also recorded” stand apart in the source; their conditions may differ. Read-outs that look alike come from different tables or passages of the source.

Key:
[1] = system: Caco2 intestinal epithelial cells; assay: Survival of Caco2 cells after compound exposure; assay type: cell-based; settings: 25 μM, 3 hours exposure
[2] = system: PA14; assay: Antibiotic tolerance/persister (AT/P) cell formation, meropenem, CFU plating; assay type: cell-based, P. aeruginosa; settings: 50 μM compound
Procedure: Wild type (PA14) P. aeruginosa was grown in liquid culture with or without Compound 54 and treated with meropenem according to published procedures (see e.g., Starkey et al, PLoS Pathog. 2014, 10:e1004321). Data are expressed as fraction of original culture surviving antibiotic treatment.
AT/P efficacy of compounds using CFU plating was assessed by growning over-night, cultures diluted 1:100 in triplicate in fresh LB medium in the presence or absence of inhibitor, and re-grown to an OD600 of 2.0 while shaking under aeration at 37° C. Before the antibiotic treatment, aliquots were plated to obtain reference colony counts. […] At 24-h and 48-h time points, the number of surviving bacteria were assessed by plating. The survival fraction of AT/P cells was calculated by dividing the number of surviving bacteria by the number of live bacteria that were present before the antibiotic treatment (reference datum) and expressed as a mean (±SD) of at least three replicate experiments. Using the same CFU plating assay, the efficacy of all compounds identified will be tested against additional antibiotic classes: b-lactams (ceftazidime, cefepime and imipenem), quinolones (ciprofloxacin, moxifloxacin, and levofloxacin), and aminoglycosides (gentamicin and tobramycicn).

[3] = system: MvfR regulon; assay: Quantification of pyocyanin (OD520nm of chloroform-extracted cultures); assay type: cell-based, P. aeruginosa; settings: for activity at 50 µM: read-out: pyocyanin @50 uM (%), compound at 50 uM; for activity at 1 µM: read-out: pyocyanin @1 uM (%), compound at 1 uM; for activity at 10 µM: read-out: pyocyanin @10 uM (%), compound at 10 uM
[4] = system: MvfR regulon; assay: pqsA gene expression (pqsA-GFP reporter); assay type: cell-based, P. aeruginosa; settings: for IC50 / activity at 10 µM / activity at 50 µM: Pseudomonas aeruginosa; for IC50: read-out: IC50 pqsA (μM); for activity at 10 µM: read-out: pqsA @10 uM (%), compound at 10 uM; for activity at 50 µM: read-out: pqsA @50 uM (%), compound at 50 uM
[5] = molecular target: T1, MvfR (Pseudomonas aeruginosa, UniProt Q9I4X0); assay: Surface plasmon resonance (SPR) binding to purified MvfR co-inducer binding domain; parameters: species or system P. aeruginosa; settings: for Signal Intensity Rmax / binding intensity relative to parent Compound 1 / Kd: SPR
T1 construct: made in house
T1 sequence (Q9I4X0 91-332): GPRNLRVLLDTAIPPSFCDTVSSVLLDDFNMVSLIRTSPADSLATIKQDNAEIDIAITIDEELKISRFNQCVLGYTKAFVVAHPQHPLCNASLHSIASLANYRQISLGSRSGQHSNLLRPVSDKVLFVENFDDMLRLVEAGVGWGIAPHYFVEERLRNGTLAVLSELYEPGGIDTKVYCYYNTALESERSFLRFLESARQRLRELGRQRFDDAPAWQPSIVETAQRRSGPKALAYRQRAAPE
Procedure: Compounds identified to interfere with MvfR were confirmed for the direct physical interaction with this protein. Using SPR, the percentage of compound's binding to the purified MvfR protein was analyzed and used to determine the binding parameters (KD, kon and koff)—thus determining the kinetic of interaction with MvfR.
The recombinant MvfR co-inducer binding domain was purified using Ni-NTA chromatography, as previously reported (see e.g., Xiao et al, Microbiology, 2006, 152:1679-1686; Starkey et al, PLoS Pathog. 2014, 10:e1004321; and Kefala et al, Acta. Crystallogr. Sect. F. Struct. Biol. Cryst. Commun. 2012, 68:695-697). The purified protein was immobilized with the amine coupling method at a target level of 5000 RU on Chip. SPR was performed according to previously reported procedures (see e.g., Starkey et al, PLoS Pathog. 2014, 10:e1004321; Maura et al, ACS Chemical Biology, 2017, 12:1435-1443; and Kitao et al, MBIO, in press). […] Table 3 lists the steady-state KD data measured by SPR.

[6] = system: MvfR regulon; assay: LC/MS quantification of HAQs and related molecules in bacterial culture supernatants; assay type: cell-based, P. aeruginosa; settings: Pseudomonas aeruginosa
[7] = Pharmacokinetics in mouse plasma and lung after single subcutaneous injection; assay type: in vivo, mice; settings: for stability in vivo (serum concentration): 10 mg/kg subcutaneous, over 24 h; for pharmacokinetics (in words): mouse, in vivo
Procedure: FIGS. 1F-1G show pharmacokinetics measured in mouse plasma (FIG. 1F) and lung (FIG. 1G) following a single subcutaneous injection of Compounds 53, 54, or 72 at 10 mg/kg.

[8] = system: Pseudomonas aeruginosa MDR clinical isolates; assay: Pyocyanin production in MDR clinical isolates; assay type: cell-based; settings: 10 μM
Procedure: Percentage of pyocyanin production is presented in presence of 10 μM of D57 or D88 compounds. Tukey's multiple comparisons test p<0.0001.
Pyocyanin levels were determined by measuring OD520nm of chloroform-extracted cultures.

[9] = system: PA14; assay: Mouse thigh infection model (PA14); assay type: in vivo, mice
Procedure: Mice were infected with 5×10^5 and 5×10^6 PA14 cells for the thigh and lung infection model respectively. FIGS. 5A-5C: Thigh model: treatment was initiated […] and repeated at 4, 8, 12 and 18 hours. FIG. 5A: monotherapy with Compound 72, 10 mg/kg (P<0.05 Mann Whitney test); FIG. 5B-5C. Combinatorial: Compound 72 (10 mg/kg) plus Ciprofloxacin 1 mg/kg (subtherapeutic dose) (FIG. 5B: P<0.05; Figure C: P>0.05; Mann Whitney test). CFUs were assessed 24 h post-infection in the thigh (FIG. 5A), liver (FIG. 5B) and spleen (FIG. 5C). Compound 72 was administered subcutaneously and ciprofloxacin intraperitoneally (IP). […] Mice were infected with 5×10^6 PA14 cells lung infection model. Compound 54 (10 mg/kg) plus ciprofloxacin 1 mg/kg treatment (subtherapeutic dose) was initiated at 2 h post-infection and repeated at 6, 12, and 18 h post-infection. CFUs were assessed 24 h post-infection in the lung. Compound 54 was administered subcutaneously and ciprofloxacin intraperitoneally (IP).
Thigh infection studies were performed using Compounds 54 and 72.

[10] = Pseudomonas aeruginosa, read-out: IC50 pyocyanin (μM)
[11] = Steady State Binding Affinity KD (μM), steady state
[12] = Steady State Binding Affinity KD [M], steady state
[13] = mean KD value, mean over the compounds named
[14] = read-out: IC50 AA (increase; μM)
[15] = compound at 10 uM, listed as D62
[16] = compound at 50 uM, listed as D62

Row | Compound | toxicity to Caco2 (survival) [1] | IC50 [3, 10] | activity at 50 µM ([3]; Pseudomonas aeruginosa) | IC50 [4] | activity at 10 µM [4] | activity at 50 µM [4] | Signal Intensity Rmax [5] | binding intensity relative to parent Compound 1 [5] | Kd [5, 11] | Kd [5, 12] | Kd [5, 13] | activity at 50 µM ([6]; read-out: 2-AA @50 uM) | activity at 50 µM ([6]; read-out: DHQ @50 uM) | activity at 50 µM ([6]; read-out: HHQ @50 uM (%)) | activity at 50 µM ([6]; read-out: HQNO @50 uM (%)) | activity at 50 µM ([6]; read-out: PQS @50 uM (%)) | activity at 1 µM ([3]; Pseudomonas aeruginosa) | activity at 10 µM ([3]; Pseudomonas aeruginosa) | activity on pyocyanin production in MDR clinical isolates [8] | further results
1 | N#Cc1ccc(NC(=O)CC(=O)Nc2ccc(Cl)cc2)cc1 [Compound 53] | not toxic | 2.4 µM | 6.23% | 1.25 µM | 1.55% | 7.97% | 26.52 | 40 times | 0.244 µM | 0.244 µM | ~0.25 µM and 0.25 µM | 5.87% | 10.3% | 1.63% | 13.9% | 8.37% |  |  |  | inhibition of persistence [2]: inhibit persistence; binding to MvfR (in words) ([5]; FIG. 1B): high affinity; IC50 ([6]; PA14, read-out: IC50 2-AA (μM)): 5.6 µM; IC50 ([6]; PA14, read-out: IC50 DHQ (μM)): 9.1 µM; IC50 ([6]; PA14, read-out: IC50 HHQ (μM)): 10.3 µM; IC50 ([6]; PA14, read-out: IC50 PQS (μM)): 8.3 µM; activity at 50 µM ([6]; read-out: AA @50 uM): 739%; IC50 [6, 14]: 14.5 µM; IC50 ([6]; read-out: IC50 HQNO (μM)): 7.3 µM; stability in vivo (serum concentration) [7]: stable in vivo; stability in vivo (serum concentration) ([7]; listed as D41): highly stable in vivo; pharmacokinetics (in words) [7]: promising pharmacokinetics
2 | N#Cc1ccc(NC(=O)CC(=O)Nc2ccc(C#N)cc2)cc1 [Compound 57] |  | 1.37 µM | 8.07% | 0.94 µM |  | 8.3% | 27.05 | 40 times | 0.286 µM | 0.286 µM | ~0.25 µM | 20% | 31.9% | 18.1% | 36% | 22.3% |  |  |  | activity at 50 µM ([6]; read-out: AA @50 uM): 531%
3 | N#Cc1ccc(NC(=O)CC(=O)Nc2ccc([N+](=O)[O-])cc2)cc1 [Compound 65] | not toxic |  | 3.4% | 2.54 µM |  | 9.5% | 29.51 |  | 0.399 µM | 0.399 µM |  | 6.94% | 12.3% | 2.88% | 18.4% | 6.32% | 80.3% | 29.7% |  | IC50 ([3]; read-out: IC50 pyocyanin): 4.48 µM; IC50 ([6]; PA14, read-out: IC50 2-AA (μM)): 8.95 µM; IC50 ([6]; PA14, read-out: IC50 DHQ (μM)): 11.3 µM; IC50 ([6]; PA14, read-out: IC50 HHQ (μM)): 21.2 µM; IC50 ([6]; PA14, read-out: IC50 PQS (μM)): 23 µM; IC50 [6, 14]: 34 µM; IC50 ([6]; read-out: IC50 HQNO (μM)): 23.3 µM
4 | N#Cc1ccc(NC(=O)CC(=O)Nc2ccc(I)cc2)cc1 [Compound 71] | not toxic | 1.63 µM | 13.3% | 0.72 µM | 13.3% | 6.03% | 30.74 | 40 times | 0.259 µM | 0.259 µM | ~0.25 µM |  |  |  |  |  |  |  |  | 
5 | N#Cc1ccc(NC(=O)CC(=O)Nc2ccc(Oc3ccccc3)cc2)cc1 [Compound 72] | not toxic | 0.891 µM | 6.06% | 0.52 µM | 1.08% | 3.7% | 34.24 |  | 1.09 µM | 1.09 µM | 0.25 µM |  |  |  |  |  | 14% | 16.8% |  | stability in vivo (serum concentration) [7]: stable in vivo; half-life ([7]; mouse lung, 10 mg/kg SC, read-out: lung half-life (converted)): 1.19 h; Tlast ([7]; mouse plasma, 10 mg/kg SC): ~6 h; half-life ([7]; mouse plasma, 10 mg/kg SC, read-out: plasma half-life (converted)): 1.13 h; pharmacokinetics (in words) [7]: promising pharmacokinetics; activity on pyocyanin production in MDR clinical isolates ([8]; listed as D57): highly active; also recorded: confirmed; bacterial CFUs at the site of infection ([9]; 10 mg/kg SC, CFUs 24 h post-infection): decrease bacterial dissemination and titer at the infection site; also recorded: reduced bacterial CFUs; potentiation of ciprofloxacin in reducing PA cells dissemination in spleen and liver ([9]; 10 mg/kg compound SC plus ciprofloxacin 1 mg/kg IP): potentiated ciprofloxacin efficacy
6 | O=C(CC(=O)Nc1ccc([N+](=O)[O-])cc1O)Nc1ccc(Oc2ccccc2)cc1 [Compound 76] |  | 0.368 µM | 5.6% | 0.42 µM | 10% | 6.7% | 36.46 |  | 0.478 µM | 0.478 µM |  |  |  |  |  |  | 10.5% | 6.17% | highly active | 
7 | N#Cc1ccc(NC(=O)CC(=O)Nc2ccc(Oc3ccccc3)cc2)c(N)c1 [Compound 77] |  |  |  |  |  |  |  |  |  |  |  |  |  |  |  |  |  |  | highly active | pyocyanin @1 uM (%) ([3]; compound at 1 uM, listed as D62): 57.50%; pyocyanin @10 uM (%) [3, 15]: 6.17%; pyocyanin @50 uM (%) [3, 16]: 7.30%; pqsA @10 uM (%) [4, 15]: 1.51%; pqsA @50 uM (%) [4, 16]: 6.20%
8 | N#Cc1ccc(NC(=O)CC(=O)Nc2ccc(Oc3ccccc3)cc2)c(O)c1 [Compound 78] |  | 0.618 µM | 5.9% | 0.938 µM | 9.63% | 7.3% | 34.69 |  | 0.494 µM | 0.494 µM |  |  |  |  |  |  | 8.8% | 5.73% | highly active | 
